Data taken from patent US9456619B1, “Control of caloric intake” (priority 2000, dated 2016).

Columns and labels:
[1] = Source text: To find out, a few days later I began drinking much more water than usual.
I was already measuring my weight regularly. I used three scales, to ensure that any weight change was not due to a changing scale.

[2] = rats, liquid diet ad libitum; effect appeared after first week; cited from earlier work
[3] = flavored liquid food, ad libitum; cited from earlier work

Question: Which weight rise ([1]; after reducing water intake from 5 to 3 liters/day) does the source give for `O` [water] here?
Answer: about 0.7 kg

Question: And the weight lost ([1]; water intake raised to 5 liters/day, over two weeks before weight stabilized)?
Answer: about 2.8 kg

Question: Which “weight gain versus same food without saccharin” value [2] does the source give for `O=C1NS(=O)(=O)c2ccccc21` [saccharin] here?
Answer: gained more weight

Question: Which “weight gain versus rats eating unflavored solid food” value [3] does the source give for `CC(=O)OC[C@H]1O[C@@](COC(C)=O)(O[C@H]2O[C@H](COC(C)=O)[C@@H](OC(C)=O)[C@H](OC(C)=O)[C@H]2OC(C)=O)[C@@H](OC(C)=O)[C@@H]1OC(C)=O` [sucrose octaacetate] here?
Answer: gained more weight
